Entries after “also recorded” stand apart in the source; their conditions may differ.
Assays:
[1] = biological target: T1, GLP-1 receptor at the cardiomyocytes (Rattus norvegicus, UniProt P32301); test: Perfusion of rat heart with ^125I-GLP-1: binding at the cardiomyocytes (CHAPS-treated); design: species or system rat (male Sprague-Dawley); conditions: STZ-diabetic rats, one month of treatment, compared with diabetic (D) and normal (N)
T1 construct: from tissue; host or cells: in situ perfused heart of male Sprague-Dawley rats (normal, streptozotocin-diabetic and treated groups)
T1 sequence (P32301 22-463): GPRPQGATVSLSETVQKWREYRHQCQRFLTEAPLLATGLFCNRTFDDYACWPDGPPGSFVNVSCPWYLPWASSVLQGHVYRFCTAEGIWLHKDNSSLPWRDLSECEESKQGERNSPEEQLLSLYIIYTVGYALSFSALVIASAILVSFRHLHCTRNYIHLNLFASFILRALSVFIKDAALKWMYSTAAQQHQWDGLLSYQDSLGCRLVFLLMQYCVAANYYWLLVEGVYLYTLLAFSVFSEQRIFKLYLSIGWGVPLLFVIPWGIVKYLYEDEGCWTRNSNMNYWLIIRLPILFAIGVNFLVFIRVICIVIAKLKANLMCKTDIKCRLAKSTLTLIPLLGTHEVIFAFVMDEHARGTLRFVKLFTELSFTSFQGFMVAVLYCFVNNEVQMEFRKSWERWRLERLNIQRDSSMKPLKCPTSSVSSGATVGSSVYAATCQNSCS
Description: (§1) In addition, the left and right lungs were tied in order to block the blood flow to them and to other organs. The aorta was slightly cut, and a polyethylene catheter was inserted (from cephalad to caudad) into its lumen to reach the aortic valve. The right atrium was punctured, and another catheter was inserted to carry out the perfusate. Both catheters were secured with a suture. A 50 mL syringe filled with heparinized Ringer-Lock buffer containing 20 meq/L K ^+, oxygenated with 95% O2, 5% CO2 at 37°C linked to an infusion pump was attached to the inlet. This solution cleared the heart from blood and clots for 15 minutes; infusion of a Ringer-Lock buffer solution for another 15 minutes cleared the heart from heparin. These steps were followed by the perfusion of a buffer containing 8.25 × 10^−4 nM/L [^125I] […] The perfusate was collected for 20 minutes at specific time intervals (between 0-1, 1-2, 2-3, 3-4, 4-5, 5-6, 6-7, 7-8, 8-9, 9-10, 10–12, 12–15, 15–20 minutes); after each collection, 500 μL of the sample was put in a liquid scintillation vial containing 4 mL of Ecolume scintillation cocktail, which was later assayed for radioactivity by a liquid scintillation analyzer. […]

[2] = biological target: T2, GLP-1 receptor at the coronary endothelium (Rattus norvegicus, UniProt P32301); test: Perfusion of rat heart with ^125I-GLP-1: binding at the coronary endothelium (buffer alone, CHAPS-untreated); design: species or system rat (male Sprague-Dawley)
T2 construct: from tissue; host or cells: in situ perfused heart of male Sprague-Dawley rats (normal, streptozotocin-diabetic and treated groups)
T2 sequence (P32301 22-463): T1 sequence (P32301 22-463)
Description: as §1

[3] = tested on: left ventricular hypertrophy; conditions: compared with angiotensin receptor blockers; cited from earlier work
Description: Diabetes mellitus currently affects more than 170 million individuals worldwide. Other than hyperglycemia, diabetes mellitus can cause a 2-3-fold increase in the occurrence of cardiovascular disease (CVD). […] Receptor signaling on the pancreas leads to enhanced insulin biosynth ...

[4] = tested on: streptozotocin-induced type 1 diabetic rats; test: Blood glucose (Accu-Chek); format: in vivo, rat (male Sprague-Dawley); conditions: STZ-diabetic rats; for effect of treatment on blood glucose level: one month of treatment, N = 24, P < .05 significant
Description: (§2) Groups D, DI, DE, DA, DIA and DEA were induced to type 1 diabetes mellitus by a single intravenous injection of streptozotocin (STZ; 85 mg/kg bw) (Sigma Chemical Co., Saint Louis, Mo, USA) in saline acidified to pH 4.5 with 0.1 M citrate buffer. Three days later, nonfasting blood glucose level was measured using Accu-Chek (Accu-Chek Instant Test; Roche Diagnostics GmbH, Mannheim, Germany); a level of ≥250 mg/dL confirmed type 1 diabetes mellitus.
(§3) All the animals were weighed weekly, and blood glucose levels were determined using Accu-Chek (Accu-Chek instant test, Roche Diagnostics GmbH, Mannheim, Germany) weekly during one month of treatment.

[5] = Plasma active GLP-1 (ELISA); format: in vivo, rat (male Sprague-Dawley); conditions: STZ-diabetic rats; active GLP-1 (7–36 and 7–37) by ELISA over one month, N = 6
Description: as §2
Rats were anesthetized, and blood was collected from the sublingual vein on days 1, 7, 14, 21, and 28 of the treatment period, at a constant time range of 9 to 10 AM. […] A relative fluorescent unit (RFU) curve was plotted using these standards (Figure 1).

[6] = tested on: nitric oxide synthase production by endothelial cells; conditions: ref 28 (Dong et al.); cited from earlier work
Description: (§4) Furthermore, this effect was eliminated upon the removal of the endothelial lining.

type 2 diabetic mice = conditions: cited from earlier work
[7] = Body weight after one month of treatment; format: in vivo, rat (male Sprague-Dawley); conditions: STZ-diabetic rats, N = 24
Description: as §2, §3

[8] = in vivo; cited from earlier work
Description: The intravenous injection of streptozotocin (STZ)—a glucosamine-nitrosourea antibiotic with structural similarity to glucose that is readily taken up by the pancreatic β cells—causes β cells toxicity and ultimately necrosis, leading to deficiency in insulin secretion. The use of Streptozotocin to induce type 1 diabetes in rats is advantageous, because it is easy, fast, and the effect of diabetes on the heart can be evaluated. Our aim was to assess the long-term effects of treatments on ...

[9] = tested on: GLP-1 receptors on the human coronary endothelial cells; design: method as in earlier work; conditions: ref 27 (Nystrom et al.); cited from earlier work
[10] = in vivo; cited from earlier work; remark: listed apart in the source
Description: Incretin mimetics have been introduced in the market to be used as therapies for diabetes mellitus [[2 ...

[11] = cited from earlier work
Description: as §4

For `COCCCOc1cc(C[C@@H](C[C@H](N)[C@@H](O)C[C@H](C(=O)NCC(C)(C)C(N)=O)C(C)C)C(C)C)ccc1OC` [Aliskiren], the “effect of treatment on GLP-1 binding affinity (τ) at the cardiomyocytes” value [1] was “did not lower the affinity”, the “effect of treatment on GLP-1 binding affinity (τ) at the coronary endothelium” value ([2]; STZ-diabetic rats, one month of treatment, compared with diabetic (D) and normal (N)) was “did not alter τ from diabetics in the CE; also recorded: no significant change in its affinity; also recorded: did not ameliorate it” and the “effect of treatment on K d of GLP-1 at the coronary endothelium” value ([2]; treated STZ-diabetic rats compared to the normal) was “extremely significant increase in K d constant”. The left ventricular hypertrophy [3] was “reduce left ventricular hypertrophy as efficiently as angiotensin receptor blockers (ARBs)”, the “fraction of treated rats with normal blood glucose levels” value ([4]; Aliskiren 50 mg/kg oral qd, after one month) was 12.5% and the “effect of treatment on blood glucose level” value [4] was “significantly decreased blood glucose levels compared to the untreated”. The “effect of treatment on plasma GLP-1 level” value [5] was “normalized”, the “nitric oxide synthase production by endothelial cells” value [6] was “significantly restored” and the insulin sensitivity (type 2 diabetic mice) was “improves insulin sensitivity”.

With “Exendin-4: GLP-1 analogue, GLP-1 receptor agonist (Sigma); group DE, 0.03 μg/kg ip bid” the “effect of treatment on blood glucose level” value [4] was “Although not significant, Exendin-4 treatment showed slight improvement”, the “body weight vs diabetic untreated” value [7] was “significant increase in their body weight” and the “effect of treatment on plasma GLP-1 level” value [5] was “normalized”.

In the case of Insulin glargine, the duration of action [8] is given as < 24 h.

For glucagon-like peptide-1 [GLP-1], the “vasodilation on binding to GLP-1 receptors” value [9] is listed as “induce vasodilation”, the physiologic half-life [10] is listed as “very short physiologic half-life” and the “vasodilation on GLP-1 infusion” value [11] is listed as “induce vasodilation”.
